Test results published in patent US20130035326A1 (AMBIT BIOSCIENCES CORPORATION, priority 2009, published 2013).

How the values were obtained:
[1] = target: T1, KIT kinase (Homo sapiens, UniProt P10721); experiment: Competition binding assay, KIT Kd
T1 construct: made in house; host or cells: T7 phage display or HEK-293 cells
Experimental: (§1) In certain embodiments, competition binding assays were performed as described in Fabian et al., Nature Biotechnology 2005, 23,329-336.
(§2) Competition binding assays used herein were developed, validated and performed as described in Fabian et al., Nature Biotechnology 2005, 23,329-336. Kinases were produced as fusions to T7 phage (See, Fabian et al. or WO04/015142) or alternatively, the kinases were expressed in HEK-293 cells and subsequently tagged with DNA for PCR detection (See, WO08/005,310). For the binding assays, streptavidin-coated magnetic beads were treated with biotinylated affinity ligands for 30 min at room temperature to generate affinity resins. The liganded beads were blocked with excess biotin and washed with blocking buffer (SeaBlock (Pierce), 1% BSA, 0.05% Tween 20, 1 mM DTT) to remove unbound ligand and to reduce non-specific binding. Binding reactions were assembled by combining kinase, liganded affinity beads, and test compounds in 1× binding buffer (20% SeaBlock, 0.17×PBS, 0.05% Tween 20, 6 mM DTT). Test compounds were prepared as 100× stocks in DMSO and diluted into the aqueous environment. Kds were determined using an eleven point threefold serial dilutions. DMSO or control compounds were was added to control assays lacking a test compound. Primary screen assays were performed in polypropylene 384-well plates in a final volume of 20-40 μL, while Kd determinations were performed in polystyrene 96-well plates in a final volume of 135 μL. The assay plates were incubated at room temperature with shaking for 1 hour to allow the binding reactions to reach equilibrium, and the affinity beads were washed extensively with wash buffer (1×PBS, 0.05% Tween 20) to remove unbound protein. The beads were then resuspended in elution buffer (1×PBS, 0.05% Tween 20, 0.5 μM non-biotinylated affinity ligand) and incubated at room temperature with shaking for 30 min. The kinase concentration in the eluates was measured by quantitative PCR.

[2] = test system: MV4-11 cells; experiment: MV4-11 cell proliferation assay (Alamar Blue); assay type: cell-based; conditions: Homo sapiens, MV4-11, 72 h, 3 days incubation
Experimental: The compounds disclosed herein were tested in an MV4-11 cell proliferation assay to determine their cellular potency against Flt3. MV4-11 cells carry ITD mutation within juxtamembrane domain of Flt3 kinase which renders the kinase constitutively active. […] This assay measures the potency of compounds as Flt3 inhibitors by measuring the reduction of Alamar Blue reagent by viable cells.
MV4-11 cells were grown in an incubator at 37° C. under 5% CO2 in Iscove's media (Celgro) with 10% FBS. The cell density was kept between 1e5 and 8e5 cells/mL.
On day one of the experiment, cells were harvested and spun at 500 g for 5 min at 4° C., the supernatant aspirated and the cells resuspended in Iscove's media with 0.5% FBS. Cell density was maintained at 7.5e5 to achieve maximum viability of the cells. The resuspended cells were incubated at 37° C. in 5% CO2 overnight.
On day two of the experiment, cells were diluted to 6.4e5/mL with Iscove's media with 0.5% FBS. 100 μL of the cell suspension (64,000 cells) were aliquoted into each well of a 96-well TC-treated plate. Compounds were added at 9 different concentrations, with half-log intervals alongside a control reference compound serving as a positive control. Final DMSO concentration was kept at 0.5% and final volume at 200 μL. The cells were then incubated at 37° C. under 5% CO2 for 3 days.
On day five of the experiment, 40 μL of Alamar Blue reagent was added to each well and the mixture was allowed to incubate for 3 hours. Alamar Blue fluorescence was measured using SoftMax Pro software at 560 nm (excitation) and 590 nm (emission). IC50s were generated as an average of duplicates and represents the concentration of test compound that achieves 50% inhibition of cellular proliferation compared to negative control.

[3] = target: T2, FLT3 kinase (Homo sapiens, UniProt P36888); experiment: Competition binding assay, FLT3 Kd
T2 construct: made in house; host or cells: T7 phage display or HEK-293 cells
T2 sequence (P36888 27-993): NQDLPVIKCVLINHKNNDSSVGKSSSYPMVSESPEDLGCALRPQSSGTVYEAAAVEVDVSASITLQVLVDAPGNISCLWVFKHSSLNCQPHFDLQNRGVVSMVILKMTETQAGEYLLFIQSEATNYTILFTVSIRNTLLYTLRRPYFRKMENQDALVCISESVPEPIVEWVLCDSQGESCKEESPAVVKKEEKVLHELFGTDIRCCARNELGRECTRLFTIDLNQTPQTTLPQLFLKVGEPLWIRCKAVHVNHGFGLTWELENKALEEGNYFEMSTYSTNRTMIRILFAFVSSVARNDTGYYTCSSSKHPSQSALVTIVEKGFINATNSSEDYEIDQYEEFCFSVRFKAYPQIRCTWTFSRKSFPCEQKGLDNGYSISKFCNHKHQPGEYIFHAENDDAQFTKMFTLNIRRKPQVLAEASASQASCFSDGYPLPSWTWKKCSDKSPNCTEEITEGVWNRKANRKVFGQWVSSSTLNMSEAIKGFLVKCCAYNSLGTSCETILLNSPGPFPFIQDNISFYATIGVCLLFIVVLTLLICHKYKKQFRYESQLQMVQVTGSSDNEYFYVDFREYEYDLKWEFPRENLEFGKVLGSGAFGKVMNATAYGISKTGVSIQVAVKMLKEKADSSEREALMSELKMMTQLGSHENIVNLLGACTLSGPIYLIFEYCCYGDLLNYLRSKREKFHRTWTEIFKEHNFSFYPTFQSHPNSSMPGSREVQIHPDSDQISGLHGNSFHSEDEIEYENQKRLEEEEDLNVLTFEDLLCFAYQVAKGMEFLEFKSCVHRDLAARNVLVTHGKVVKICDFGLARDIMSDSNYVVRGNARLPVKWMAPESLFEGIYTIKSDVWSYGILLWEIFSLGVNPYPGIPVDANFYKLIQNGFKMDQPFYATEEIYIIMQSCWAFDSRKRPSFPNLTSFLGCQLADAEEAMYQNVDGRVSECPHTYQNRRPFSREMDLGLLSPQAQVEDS
Experimental: as §1, §2

[4] = target: T3, CSF-1R kinase (Homo sapiens, UniProt P07333); experiment: Competition binding assay, CSF-1R Kd
T3 construct: made in house; host or cells: T7 phage display or HEK-293 cells
Experimental: as §1, §2

T1 sequence (P10721 26-976): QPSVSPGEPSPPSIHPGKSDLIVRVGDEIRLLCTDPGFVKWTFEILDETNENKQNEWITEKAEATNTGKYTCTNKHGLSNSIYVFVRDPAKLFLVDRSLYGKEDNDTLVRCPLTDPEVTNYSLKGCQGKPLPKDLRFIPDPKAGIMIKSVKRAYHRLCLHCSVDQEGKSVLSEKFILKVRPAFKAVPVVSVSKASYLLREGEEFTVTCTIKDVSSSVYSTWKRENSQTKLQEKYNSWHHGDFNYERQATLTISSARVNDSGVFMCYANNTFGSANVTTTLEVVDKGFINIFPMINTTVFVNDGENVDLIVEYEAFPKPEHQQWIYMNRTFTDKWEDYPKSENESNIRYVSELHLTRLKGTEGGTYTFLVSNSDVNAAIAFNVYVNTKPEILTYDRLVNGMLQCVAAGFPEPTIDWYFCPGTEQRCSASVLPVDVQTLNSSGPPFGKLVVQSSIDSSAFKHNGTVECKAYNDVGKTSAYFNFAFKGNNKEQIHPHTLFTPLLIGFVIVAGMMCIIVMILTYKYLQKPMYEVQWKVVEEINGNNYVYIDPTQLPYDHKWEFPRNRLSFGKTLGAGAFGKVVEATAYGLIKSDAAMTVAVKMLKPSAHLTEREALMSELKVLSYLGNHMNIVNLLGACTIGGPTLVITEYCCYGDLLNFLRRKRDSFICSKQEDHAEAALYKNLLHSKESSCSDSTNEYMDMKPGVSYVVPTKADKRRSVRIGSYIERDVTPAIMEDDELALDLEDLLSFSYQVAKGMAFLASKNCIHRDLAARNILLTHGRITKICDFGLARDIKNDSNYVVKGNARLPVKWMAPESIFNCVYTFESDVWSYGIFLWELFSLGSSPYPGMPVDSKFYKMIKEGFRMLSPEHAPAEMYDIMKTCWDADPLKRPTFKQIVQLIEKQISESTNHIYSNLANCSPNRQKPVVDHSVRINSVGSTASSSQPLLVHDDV
T3 sequence (P07333 20-972): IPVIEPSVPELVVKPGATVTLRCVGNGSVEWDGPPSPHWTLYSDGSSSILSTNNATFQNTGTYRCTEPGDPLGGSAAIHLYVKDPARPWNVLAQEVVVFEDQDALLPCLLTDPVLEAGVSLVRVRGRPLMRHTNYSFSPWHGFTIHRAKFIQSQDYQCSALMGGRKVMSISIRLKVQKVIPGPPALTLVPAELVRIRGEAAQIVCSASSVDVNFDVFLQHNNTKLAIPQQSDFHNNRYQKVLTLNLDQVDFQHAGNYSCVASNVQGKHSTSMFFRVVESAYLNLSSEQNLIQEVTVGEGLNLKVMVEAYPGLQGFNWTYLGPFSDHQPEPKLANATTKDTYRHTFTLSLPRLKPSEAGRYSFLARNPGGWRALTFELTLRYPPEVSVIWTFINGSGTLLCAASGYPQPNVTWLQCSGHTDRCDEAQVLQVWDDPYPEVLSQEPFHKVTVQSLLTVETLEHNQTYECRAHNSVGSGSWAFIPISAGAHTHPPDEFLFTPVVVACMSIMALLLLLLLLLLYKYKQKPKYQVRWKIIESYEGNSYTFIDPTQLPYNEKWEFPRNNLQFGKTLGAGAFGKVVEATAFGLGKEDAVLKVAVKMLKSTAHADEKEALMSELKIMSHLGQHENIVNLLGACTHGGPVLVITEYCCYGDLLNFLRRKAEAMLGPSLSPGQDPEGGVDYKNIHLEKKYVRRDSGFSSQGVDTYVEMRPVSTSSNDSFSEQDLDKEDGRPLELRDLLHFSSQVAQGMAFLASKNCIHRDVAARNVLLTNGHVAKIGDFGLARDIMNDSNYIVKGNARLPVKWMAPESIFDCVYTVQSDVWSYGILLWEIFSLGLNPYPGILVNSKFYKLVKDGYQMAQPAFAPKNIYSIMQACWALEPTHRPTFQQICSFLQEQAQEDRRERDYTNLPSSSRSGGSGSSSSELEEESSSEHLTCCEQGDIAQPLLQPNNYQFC

SMILES | Kd [1] | IC50 [2] | Kd [3] | Kd [4]
Cc1cc(N)ncc1-c1ccc(CC(=O)Nc2cc(C(C)(C)C)on2)cc1 [Example 86, 5-(4-(2-(5-tert-butylisoxazol-3-ylamino)-2-oxoethyl)phenyl)-4-methylpyridin-2-aminium methanesulfonate] | 0.001 to 0.01 µM | 0.01 to 0.1 µM | ≤ 0.001 µM | 0.01 to 0.1 µM
CC(C)(C)c1cc(NC(=O)Cc2ccc(-c3cnc(N)c(C#N)c3)cc2)no1 [Example 93, 5-(4-(2-(5-tert-butylisoxazol-3-ylamino)-2-oxoethyl)phenyl)-3-cyanopyridin-2-aminium methanesulfonate] | 0.001 to 0.01 µM | ≤ 0.001 µM | 0.001 to 0.01 µM | ≤ 0.01 µM
CC(C)(C)c1cc(NC(=O)C(N)c2ccc(-c3ccc(N)nc3)cc2)no1 (centres unmarked) [Example 173] | 0.01 to 0.1 µM | 0.1 to 0.5 µM | 0.001 to 0.01 µM | > 0.5 µM
CC(=O)OCC1(c2cc(NC(=O)Cc3ccc(-c4ccc(N)nc4)cc3)no2)CC1 [Example 169] | 0.001 to 0.01 µM | 0.01 to 0.1 µM | ≤ 0.001 µM | ≤ 0.01 µM
O=C(Nc1ccc(-c2ccc(NCCN3CCOCC3)nc2)cc1)Nc1cc(C2(C(F)(F)F)CC2)on1 [Example 36, 4-(2-(5-(4-(3-(5-(1-(trifluoromethyl)cyclopropyl)isoxazol-3-yl)ureido)phenyl)pyridin-2-ylamino)ethyl)morpholin-4-ium methanesulfonate] | ≤ 0.001 µM | 0.001 to 0.01 µM | ≤ 0.001 µM | ≤ 0.01 µM
Cc1nc(N)ccc1-c1ccc(CC(=O)Nc2cc(C(C)(C)C)on2)cc1 [Example 87, 5-(4-(2-(5-tert-butylisoxazol-3-ylamino)-2-oxoethyl)phenyl)-6-methylpyridin-2-aminium methanesulfonate] | 0.001 to 0.01 µM | 0.01 to 0.1 µM | ≤ 0.001 µM | 0.01 to 0.1 µM
CC(C)(c1cc(NC(=O)Nc2ccc(-c3ccc(N)nc3)cc2)no1)C(F)(F)F [Example 35, methanesulfonate] | 0.001 to 0.01 µM | ≤ 0.001 µM | ≤ 0.001 µM | ≤ 0.01 µM
Cn1cc(-c2cc(-c3ccc(CC(=O)Nc4cc(C(C)(C)C)on4)cc3)cnc2N)cn1 [Example 154] | 0.001 to 0.01 µM | 0.001 to 0.01 µM | ≤ 0.001 µM | 0.01 to 0.1 µM
CC(C)(C)c1cc(NC(=O)C(O)c2ccc(-c3ccc(N)nc3)cc2)no1 (centres unmarked) [Example 182] | 0.001 to 0.01 µM | 0.001 to 0.01 µM | 0.001 to 0.01 µM | 0.01 to 0.1 µM
CC(C)(C)c1cc(NC(=O)Cc2ccc(-c3cnc(N)c([S+]([O-])C(C)(C)C)c3)cc2)no1 (centres unmarked) [Example 179] | 0.001 to 0.01 µM | 0.001 to 0.01 µM | ≤ 0.001 µM | 0.1 to 0.5 µM
CC1(c2cc(NC(=O)Cc3ccc(-c4cnc(N)cc4F)cc3)no2)CC1 [Example 170] | 0.001 to 0.01 µM | 0.001 to 0.01 µM | ≤ 0.001 µM | ≤ 0.01 µM
CC(C)(C)c1cc(NC(=O)Cc2ccc(-c3cnc(N)c(S(=O)(=O)C(C)(C)C)c3)cc2)no1 [Example 176] | 0.001 to 0.01 µM | 0.01 to 0.1 µM | ≤ 0.001 µM | > 0.5 µM
CC(C)(F)c1cc(NC(=O)Nc2ccc(-c3ccc(N)nc3)cn2)on1 [Example 42, 1-(6′-amino-3,3′-bipyridin-6-yl)-3-(3-(2-fluoropropan-2-yl)isoxazol-5-yl)urea] | ≤ 0.001 µM | 0.01 to 0.1 µM | 0.001 to 0.01 µM | ≤ 0.01 µM
CC(C)(F)c1cc(NC(=O)Nc2ccc(-c3ccc(NCCN4CCOCC4)nc3)cc2)on1 [Example 38, 4,4-(2-(5-(4-(3-(3-(2-fluoropropan-2-yl)isoxazol-5-yl)ureido)phenyl)pyridin-2-ylamino)ethyl)morpholin-4-ium methanesulfonate] | ≤ 0.001 µM | 0.01 to 0.1 µM | 0.001 to 0.01 µM | ≤ 0.01 µM

The remaining lines, values ahead:

Kd [1] | IC50 [2] | Kd [3] | Kd [4] | SMILES
≤ 0.001 µM | ≤ 0.001 µM | ≤ 0.001 µM | ≤ 0.01 µM | CC(C)(C)c1cc(NC(=O)Nc2ccc(-c3ccc(NCCCN4CCOCC4)nc3)cc2)no1 [Example 28, 1-(5-tert-butylisoxazol-3-yl)-3-(4-(6-(3-morpholinopropylamino)pyridin-3-yl)phenyl)urea]
≤ 0.001 µM | 0.001 to 0.01 µM | ≤ 0.001 µM | ≤ 0.01 µM | CC(C)(c1cc(NC(=O)Nc2ccc(-c3ccc(N)nc3)cn2)no1)C(F)(F)F [Example 43, 1-(6′-amino-3,3′-bipyridin-6-yl)-3-(5-(1,1,1-trifluoro-2-methylpropan-2-yl)isoxazol-3-yl)urea]
0.001 to 0.01 µM | 0.1 to 0.5 µM | 0.001 to 0.01 µM | 0.01 to 0.1 µM | Cn1nc(C(C)(C)CO)cc1NC(=O)Nc1ccc(-c2ccc(N)nc2)cc1 [Example 82, 5-(4-(3-(3-(1-hydroxy-2-methylpropan-2-yl)-1-methyl-1H-pyrazol-5-yl)ureido)phenyl)pyridin-2-aminium methanesulfonate]
0.001 to 0.01 µM | 0.01 to 0.1 µM | ≤ 0.001 µM | ≤ 0.01 µM | CC(C)(CO)c1cc(NC(=O)Cc2ccc(-c3ccc(N)nc3)cc2)on1 [Example 83, 5-(4-(2-((3-(1-hydroxy-2-methylpropan-2-yl)isoxazol-5-yl)amino)-2-oxoethyl)phenyl)pyridin-2-aminium methanesulfonate]
0.001 to 0.01 µM | 0.001 to 0.01 µM | ≤ 0.001 µM | ≤ 0.01 µM | COCCNc1ccc(-c2ccc(CC(=O)Nc3cc(C(C)(C)C)on3)cc2)cn1 [Example 89, 5-(4-(2-(5-tert-butylisoxazol-3-ylamino)-2-oxoethyl)phenyl)-N-(2-methoxyethyl)pyridin-2-aminium methanesulfonate]
≤ 0.001 µM | 0.001 to 0.01 µM | ≤ 0.001 µM | ≤ 0.01 µM | CC1(c2cc(NC(=O)Cc3ccc(-c4ccc(NCCS(C)(=O)=O)nc4)cc3)no2)CC1 [Example 185]
